Like-named read-outs stand apart in the source and are kept apart here. Oligonucleotides are written 5' to 3', each unit as a sugar letter and its base; * is a phosphorothioate linkage, no mark a phosphodiester; rarer units and linkages stand in square brackets, end groups in braces. Plain capitals give the bases only. d = 2'-deoxy (DNA); m = 2'-O-methyl; r = 2'-OH (RNA); f = 2'-fluoro
Key:
[1] = Stability of siRNAs in human plasma in vitro (gel, ratio of the longest fragments RL); assay type: in vitro ADME
Protocol: The siRNAs (20 μM, 10 μl) obtained in Preparation Example 1 were incubated with 50% human plasma (HP) at 37° C. in vitro for a certain time and samples were taken therefrom. Specifically, 10 μl samples were taken at 0, 2, 4, 6, 8, 24 and 48 hours respectively and immediately snap frozen in liquid nitrogen, followed by cryopreservation at −80° C. for future use. 20 wt % non-denaturing polyacrylamide gel was formulated, and 10 μl 5-fold diluted above samples (dilution solution: 1×PBS buffer at pH 7.4) and 4 μl loading buffer (20 mM EDTA, 36 wt % glycerol, 0.06 wt % bromophenol blue) were mixed and then loaded into the gel to perform electrophoresis for about 60 minutes under 80 mA constant current. After electrophoresis finished, the gel was stained with 1× Sybr Gold dye (Invitrogen, Cat. 11494) for 15 minutes followed by imaging.
The ratio of the longest fragments remained after incubating the test siRNAs and control siRNAs with human plasma to the longest fragments of the siRNAs without the treatment of human plasma (i.e., the markers shown in FIG. 3) (also referred to as ratio of the longest fragments, RL) is calculated by reading the grayscale values quantitatively.

HBV gene = details: prior application CN102140461B; cited from earlier work
[2] = prior application CN102140461B; cited from earlier work

Row | Substance | RL (ratio of the longest fragments) 0 h ([1]; 50% human plasma, 37° C., 0 h) [%] | RL (ratio of the longest fragments) 2 h ([1]; 50% human plasma, 37° C., 2 h) [%] | RL (ratio of the longest fragments) 4 h ([1]; 50% human plasma, 37° C., 4 h) [%] | RL (ratio of the longest fragments) 6 h ([1]; 50% human plasma, 37° C., 6 h) [%] | RL (ratio of the longest fragments) 8 h ([1]; 50% human plasma, 37° C., 8 h) [%] | RL (ratio of the longest fragments) 24 h ([1]; 50% human plasma, 37° C., 24 h) [%] | RL (ratio of the longest fragments) 48 h ([1]; 50% human plasma, 37° C., 48 h) [%] | band position / full-length state on gel (FIG. 3) ([1]; 50% human plasma, up to 48 h) | activity at cell level compared to unmodified siRNA CA1 (HBV gene) | stability in blood [2] | RL (ratio of the longest fragments) 0 h [1] [%] | RL (ratio of the longest fragments) 2 h [1] [%] | RL (ratio of the longest fragments) 4 h [1] [%] | RL (ratio of the longest fragments) 6 h [1] [%] | RL (ratio of the longest fragments) 8 h [1] [%] | RL (ratio of the longest fragments) 24 h [1] [%] | RL (ratio of the longest fragments) 48 h [1] [%]
1 | 1d: sense CmCmUmUmGAGGCmAUmACmUmUmCmAAAdTdT, antisense UUmUfGAAGUfAUfGCCUfCAAGGdTdT (sense mCmCmUmUrGrArGrGmCrAmUrAmCmUmUmCrArArAdTdT; antisense rUmUfUrGrArArGfUrAfUrGrCrCfUrCrArArGrGdTdT) | 100.0 | 90.0 | 97.2 | 93.3 | 87.5 | 55.7 | 65.1 | – | – | – | – | – | – | – | – | – | –
2 | 2d: sense CmCmUmUmGAGGCmAUmACmUmUmCmAAAdTdT, antisense UfUUfGAAGUfAUfGCCUfCAAGGdTdT (sense mCmCmUmUrGrArGrGmCrAmUrAmCmUmUmCrArArAdTdT; antisense fUrUfUrGrArArGfUrAfUrGrCrCfUrCrArArGrGdTdT) | 100.0 | 97.6 | 88.2 | 82.2 | 84.5 | 82.1 | 78.4 | – | – | – | – | – | – | – | – | – | –
3 | 3d: sense CmCmUmUmGAGGCmAUmACmUmUmCmAAAdTdT, antisense UfUmUGAAGUfAUfGCCUfCAAGGdTdT (sense mCmCmUmUrGrArGrGmCrAmUrAmCmUmUmCrArArAdTdT; antisense fUmUrUrGrArArGfUrAfUrGrCrCfUrCrArArGrGdTdT) | 100.0 | 96.6 | 99.6 | 93.3 | 87.1 | 75.0 | 41.6 | – | – | – | – | – | – | – | – | – | –
4 | 8d: sense CmCmUmUmGAGGCmAUmACmUmUmCmAAAdTdT, antisense UfUmUfGAAGUAUfGCCUfCAAGGdTdT (sense mCmCmUmUrGrArGrGmCrAmUrAmCmUmUmCrArArAdTdT; antisense fUmUfUrGrArArGrUrAfUrGrCrCfUrCrArArGrGdTdT) | 100.0 | 78.2 | 72.7 | 59.7 | 48.3 | 34.0 | 25.9 | – | – | – | – | – | – | – | – | – | –
5 | 14d: sense CmCmUmUmGAGGCmAUmACmUmUmCmAAAdTdT, antisense UfUmUfGAAGUfAUfGCCUCAAGGdTdT (sense mCmCmUmUrGrArGrGmCrAmUrAmCmUmUmCrArArAdTdT; antisense fUmUfUrGrArArGfUrAfUrGrCrCrUrCrArArGrGdTdT) | 100.0 | 94.6 | 90.0 | 85.6 | 86.0 | 78.0 | 84.6 | – | – | – | – | – | – | – | – | – | –
6 | A4: siRNA of CN102140461B; sense CmCmUmUmGAGGCmAUmACmUmUmCmAAAdTdT, antisense UfUmUfGAAGUfAUfGCCUfCAAGGdTdT (sense CCUUGAGGCAUACUUCAAATT; antisense UUUGAAGUAUGCCUCAAGGTT; sense: DNA at T, 2'-O-methyl at CU, RNA at AG, backbone not given here; antisense: sugars from the 5' end fmfrrrrfrfrrrfrrrrrdd, backbone not given here) [reference compound] | 100.0 | 97.5 | 93.7 | 106.0 | 91.7 | 90.0 | 81.2 | band thereof significantly shifts downward gradually | substantially equal inhibitory activity as that of siRNA CA1 | increased stability in blood | – | – | – | – | – | – | –
7 | NC-bas: negative control siRNA; sense UmUmCmUmCmCmGAACmGUmGUmCmACmGUmdTdT, antisense ACmGUfGACfACfGUfUfCfGGAGAAdTdT (sense UUCUCCGAACGUGUCACGUTT; antisense ACGUGACACGUUCGGAGAATT; chemistry not fully specified) [reference compound] | – | – | – | – | – | – | – | – | – | – | 100.0 | 95.1 | 89.8 | 86.8 | 85.3 | 91.1 | 90.8
8 | NC-pos: negative control siRNA; sense UmUmCmUmCCGAAmCGmUGmUmCmAmCGUdTdT, antisense AfCmGfUGACAfCGfUUCGfGAGAAdTdT (sense UUCUCCGAACGUGUCACGUTT; antisense ACGUGACACGUUCGGAGAATT; chemistry not fully specified) [reference compound] | – | – | – | – | – | – | – | – | – | – | 100.0 | 93.4 | 95.9 | 84.9 | 88.6 | 87.1 | 90.0
9 | NC: negative control siRNA; sense UUCUCCGAACGUGUCACGUdTdT, antisense ACGUGACACGUUCGGAGAAdTdT (sense UUCUCCGAACGUGUCACGUTT; antisense ACGUGACACGUUCGGAGAATT; further chemistry not given here) [reference compound] | – | – | – | – | – | – | – | – | – | – | 100.0 | 83.9 | 69.7 | 58.4 | 52.6 | 36.2 | 26.0
10 | X2M2(S++): sense CmCmUmUmGAGGCmAUmACmUmUmCmAAAdT-s-dT, antisense UfUmUfGAAGUfAUGCCUfCAAGGdT-s-dT (sense CCUUGAGGCAUACUUCAAAT; antisense UUUGAAGUAUGCCUCAAGGT; chemistry not fully specified) | 100.0 | 101.5 | 98.2 | 98.6 | 93.0 | 92.1 | 90.9 | – | – | – | – | – | – | – | – | – | –
11 | X2M2(S−−): sense CmCmUmUmGAGGCmAUmACmUmUmCmAAAdTdT, antisense UfUmUfGAAGUfAUGCCUfCAAGGdTdT (as printed in the source, key not given here) | 100.0 | 111.3 | 97.5 | 90.2 | 96.1 | 109.1 | 93.9 | – | – | – | – | – | – | – | – | – | –

— US20190062749A1, “SIRNA, PHARMACEUTICAL COMPOSITION AND CONJUGATE WHICH CONTAIN SIRNA, AND USES THEREOF” (priority 2015, published 2019)
